The values below come from patent US20240254143A1, “OREXIN RECEPTOR AGONISTS AND USES THEREOF” (JAZZ PHARMACEUTICALS IRELAND LIMITED, priority 2021, published 2024).

Structures are written as SMILES.

This test deals with T1, human recombinant OX2 (hOX2) receptor (Homo sapiens, UniProt O43614).
T1 construct: host or cells: CHO cells
T1 sequence (O43614 1-444): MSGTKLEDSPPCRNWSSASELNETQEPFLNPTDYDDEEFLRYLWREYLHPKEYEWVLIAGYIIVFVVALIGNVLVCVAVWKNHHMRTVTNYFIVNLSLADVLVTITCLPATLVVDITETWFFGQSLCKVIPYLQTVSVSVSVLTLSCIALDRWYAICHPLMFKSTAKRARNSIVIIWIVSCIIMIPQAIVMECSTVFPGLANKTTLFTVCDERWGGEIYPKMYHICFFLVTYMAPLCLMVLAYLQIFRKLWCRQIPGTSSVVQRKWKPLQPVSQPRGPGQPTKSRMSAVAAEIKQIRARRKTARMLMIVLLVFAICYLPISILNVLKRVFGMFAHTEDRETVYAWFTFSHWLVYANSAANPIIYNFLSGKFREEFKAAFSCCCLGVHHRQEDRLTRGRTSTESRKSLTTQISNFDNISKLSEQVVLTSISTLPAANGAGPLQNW
The test can be described thus: IP-1 accumulation assay (IP-One HTRF) in hOX2-CHO cells. Type of test: cell-based. As to conditions: 60 min at 37° C., mean of at least two independent experiments, read-out: EC50_OX2R Category. The method, boiled down: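 hOX2 receptor expressed in CHO cells, seeded in suspension in HBSS with 20 mM HEPES pH 7.4, LiCl and 0.1% BSA; compounds tested as 11-point CRC (0.5% DMSO final), 60 min at 37 °C. IP-1 read by HTRF (665/615 ratio) after 60 min lysis at room temperature; response as % of maximal OX-A response, EC50 by four-parameter logistic fit, mean of ≥2 experiments in duplicate.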
Take `O=C1COC[C@@]2(C[C@@H](C(F)F)N(C(=O)[C@H]3C[C@@H](F)C3)[C@H]2Cc2cccc(-c3cc(F)cc(F)c3)c2F)N1` [Example 80, (1S,3S,5S)-3-(difluoromethyl)-2-[(1s,3s)-3-fluorocyclobutanecarbonyl]-1-({2,3′,5′-trifluoro-[1,1′-biphenyl]-3-yl}methyl)-9-oxa-2,6-diazaspiro[4.5]decan-7-one]: the EC50 fell in the range of 0.1 to 1 µM.
The value for `C[C@@H]1C[C@@]2(COCC(=O)N2)[C@H](Cc2cccc(-c3cc(F)cc(F)c3)c2F)N1C(=O)C1CCC1` [Example 81, (1S,3R,5S)-2-cyclobutanecarbonyl-3-methyl-1-({2,3′,5′-trifluoro-[1,1′-biphenyl]-3-yl}methyl)-9-oxa-2,6-diazaspiro[4.5]decan-7-one] was below 0.1 µM; that for `C[C@@H]1C[C@@]2(COCC(=O)N2)[C@H](Cc2cccc(-c3cc(F)cc(F)c3)c2F)N1C(=O)[C@H]1C[C@@H](F)C1` [Example 82, (1S,3R,5S)-3-methyl-2-[(1s,3s)-3-fluorocyclobutanecarbonyl]-1-({2,3′,5′-trifluoro-[1,1′-biphenyl]-3-yl}methyl)-9-oxa-2,6-diazaspiro[4.5]decan-7-one] was below 0.1 µM.
Then `C[C@@H]1C[C@@]2(COCC(=O)N2)[C@H](Cc2cccc(-c3cc(F)cc(F)c3)c2F)N1C(=O)OCC(F)F` [Example 83, 2,2-difluoroethyl (1S,3R,5S)-3-methyl-7-oxo-1-({2,3′,5′-trifluoro-[1,1′-biphenyl]-3-yl}methyl)-9-oxa-2,6-diazaspiro[4.5]decane-2-carboxylate], with 0.1 to 1 µM; and `C[C@@H]1C[C@@]2(COCC(=O)N2)[C@H](Cc2cccc(-c3cc(F)cc(F)c3)c2F)N1C(=O)CC(F)(F)F` [Example 84, (1S,3R,5S)-3-methyl-1-({2,3′,5′-trifluoro-[1,1′-biphenyl]-3-yl}methyl)-2-(3,3,3-trifluoropropanoyl)-9-oxa-2,6-diazaspiro[4.5]decan-7-one], with 0.1 to 1 µM.
The value for `COC(=O)N1[C@H](C)C[C@@]2(COCC(=O)N2)[C@@H]1Cc1cccc(-c2cc(F)cc(F)c2)c1F` [Example 85, Methyl (1S,3R,5S)-3-methyl-7-oxo-1-({2,3′,5′-trifluoro-[1,1′-biphenyl]-3-yl}methyl)-9-oxa-2,6-diazaspiro[4.5]decane-2-carboxylate] was above 10 µM; that for `C[C@@H]1C[C@@]2(COCC(=O)N2)[C@H](Cc2cccc(-c3cc(F)cc(F)c3)c2F)N1C(=O)C1CC(F)(F)C1` [Example 86, (1S,3R,5S)-2-(3,3-difluorocyclobutanecarbonyl)-3-methyl-1-({2,3′,5′-trifluoro-[1,1′-biphenyl]-3-yl}methyl)-9-oxa-2,6-diazaspiro[4.5]decan-7-one] was 0.1 to 1 µM; that for `CCN(C)C(=O)N1[C@H](C)C[C@@]2(COCC(=O)N2)[C@@H]1Cc1cccc(-c2cc(F)cc(F)c2)c1F` [Example 87, (1S,3R,5S)-N-ethyl-N,3-dimethyl-7-oxo-1-({2,3′,5′-trifluoro-[1,1′-biphenyl]-3-yl}methyl)-9-oxa-2,6-diazaspiro[4.5]decane-2-carboxamide] was 0.1 to 1 µM.
Regarding `COCC(=O)N1[C@H](C)C[C@@]2(COCC(=O)N2)[C@@H]1Cc1cccc(-c2cc(F)cc(F)c2)c1F` [Example 88, (1S,3R,5S)-2-(2-methoxyacetyl)-3-methyl-1-({2,3′,5′-trifluoro-[1,1′-biphenyl]-3-yl}methyl)-9-oxa-2,6-diazaspiro[4.5]decan-7-one], the EC50 fell in the range of 1 to 10 µM.
The value for `C[C@@H]1C[C@@]2(COCC(=O)N2)[C@H](Cc2cccc(-c3cc(F)cc(F)c3)c2F)N1C(=O)[C@H]1CCO1` [Example 89, (1S,3R,5S)-3-methyl-2-[(2R)-oxetane-2-carbonyl]-1-({2,3′,5′-trifluoro-[1,1′-biphenyl]-3-yl}methyl)-9-oxa-2,6-diazaspiro[4.5]decan-7-one] was 0.1 to 1 µM; that for `C[C@@H]1C[C@@]2(COCC(=O)N2)[C@H](Cc2cccc(-c3cc(F)cc(F)c3)c2F)N1S(C)(=O)=O` [Example 93, (1S,3R,5S)-2-methanesulfonyl-3-methyl-1-({2,3′,5′-trifluoro-[1,1′-biphenyl]-3-yl}methyl)-9-oxa-2,6-diazaspiro[4.5]decan-7-one] was above 10 µM.
